Laboratory results as given in ChEMBL document CHEMBL4390635, “α-Glucosidase inhibition activity and in silico study of 2-(benzo[d][1,3]dioxol-5-yl)-4H-chromen-4-one, a synthetic derivative of flavone” (Bioorg Med Chem, 2019).
Activity calls are given as the source filed them. The calls are words filed in the database; no cut-off is given here.

How the values were obtained:
Alpha glucosidase = Alpha glucosidase (Homo sapiens, UniProt O43451+P10253+P14410+Q2M2H8); experiment: Inhibition of alpha-glucosidase (unknown origin) incubated for 20 mins before pNPG substrate addition and measured after 30 mins by UV spectrometry; format: protein assay
Saccharomyces cerevisiae [1] = experiment: Inhibition of Saccharomyces cerevisiae alpha-glucosidase at 669.57 uM incubated for 30 mins before pNPG substrate addition and measured after 10 mins by spectrophotometry relative to untreated control
Saccharomyces cerevisiae [2] = experiment: Competitive inhibition of Saccharomyces cerevisiae alpha-glucosidase incubated for 30 mins before pNPG substrate addition and measured after 10 mins by spectrophotometry based Michaelis-Menten equation and Lineweaver-Burk plot analysis
Saccharomyces cerevisiae [3] = experiment: Inhibition of Saccharomyces cerevisiae alpha-glucosidase at 3.54 uM incubated for 30 mins before pNPG substrate addition and measured after 10 mins by spectrophotometry relative to untreated control
Saccharomyces cerevisiae [4] = experiment: Inhibition of Saccharomyces cerevisiae alpha-glucosidase at 27.62 uM incubated for 30 mins before pNPG substrate addition and measured after 10 mins by spectrophotometry relative to untreated control
Saccharomyces cerevisiae [5] = experiment: Inhibition of Saccharomyces cerevisiae alpha-glucosidase incubated for 30 mins before pNPG substrate addition and measured after 10 mins by spectrophotometry
Saccharomyces cerevisiae [6] = experiment: Non-competitive inhibition of Saccharomyces cerevisiae alpha-glucosidase assessed as substrate Km incubated for 15 mins before pNPG substrate addition and measured for 180 secs by spectrophotometry based Michaelis-Menten equation and Lineweaver-Burk plot analysis
Saccharomyces cerevisiae [7] = experiment: Non-competitive inhibition of Saccharomyces cerevisiae alpha-glucosidase assessed as substrate Vmax incubated for 15 mins before pNPG substrate addition and measured for 180 secs by spectrophotometry based Michaelis-Menten equation and Lineweaver-Burk plot analysis

H-RVPSLM-OH
IC50 (Alpha glucosidase): 23.07 µM

C[C@H]1O[C@H](O[C@H]2[C@H](O)[C@@H](O)[C@@H](O[C@H]3[C@H](O)[C@@H](O)C(O)O[C@@H]3CO)O[C@@H]2CO)[C@H](O)[C@@H](O)[C@@H]1N[C@H]1C=C(CO)[C@@H](O)[C@H](O)[C@H]1O (some centres undefined)
inhibition (Saccharomyces cerevisiae [1]): 97.7%
inhibition (Saccharomyces cerevisiae [2]): Active

O=c1cc(-c2ccc3c(c2)OCO3)oc2ccccc12
inhibition (Saccharomyces cerevisiae [3]): 8.4%
inhibition (Saccharomyces cerevisiae [4]): 99.3%
inhibition (Saccharomyces cerevisiae [5]): Dose-dependent effect
Km (Saccharomyces cerevisiae [6]): 71.4 µM⁻¹
Vmax (Saccharomyces cerevisiae [7]): 0.028 µmol/min

Cc1cc(=O)oc2c(O)c(O)ccc12 [4-METHYLDAPHNETIN]
IC50 (Alpha glucosidase): 52 µM
